Measurements published in US20200237871A1, “METHODS FOR MITIGATING LIVER INJURY AND PROMOTING LIVER HYPERTROPHY, REGENERATION AND CELL ENGRAFTMENT IN CONJUNCTION WITH RADIATION AND/OR RADIOMIMETIC TREATMENTS” (Janssen Pharmaceutica NV, priority 2019, published 2020).

Columns and labels:
cirrhotic mice = assay: Lobe weight ratio / hypertrophy of non-irradiated lobe in cirrhotic mice after HIR (Example 5); format: in vivo, mouse
Description: Male C57BL/6 DPPIV knockout male mice (10-14 weeks) were injected intraperitoneally with carbon tetrachloride (CCl4) twice a week for a minimum of 12 weeks until a maximum of when 5 out of 30 mice perish from the CCl4 injection. Immediately after, the animals were randomly distributed into the experimental groups.
Image-guided external beam irradiation was performed using a small animal radiation research platform (SARRP, Xstrahl Inc., Suwanee, Ga.). Mice were given gastrografin contrast through gavage to improve visualization of the gastrointestinal (GI) tract. […]
The methods were identical to Experiment 4 as described above with the exception that the CCl4 dose was increased to 20% in olive oil over 12 weeks. To evaluate the effect of RWJ-800088+Liver Sinusoidal Endothelial Cells (LSEC), RWJ-800088+Plerixafor (a selective inhibitor of CXCR4 administered pre- and post-irradiation) on radiation induced liver disease as measured by SPECT-CT in cirrhotic mice after single hepatic irradiation (HIR) at 50 Gy. […]
The dosing solution of RWJ-800088 was prepared as described in Experiment 4. […] The number of viral particles and infectious units' ratio was determined by infecting 293 cells at various dilutions, followed by immunocytochemical staining for adenoviral hexons. The infectious titer was calculated from the number of plaques formed per 1,000 viral particles. […]

factor VIII (FVIII) = assay: Factor VIII production in plasma and liver of Hemophilia A mice (ELISA, Western blot, mRNA) (Example 6); format: in vivo, mouse
Description: 8-16-week-old male C57/BL6 mice, 8-16-week-old female and male B6129SF2/J mice (donor for isolating LSECs) and 8-16-week-old female and male Hemophilia mice (F^8tm1Kaz) mice were used in this study. Mice were housed in groups of up to 5 in micro-isolator cages on stainless steel racks (Allentown, Inc., Allentown, N.J.) with a total floor space of 500 cm^2. The cages utilized an external water bottle and a dual feeder rack (Fisher Scientific, Hampton, N.H.). These cages were stored in the storage rack which provided temperature, humidity, and ventilation control to each individual cage (Allentown, Inc.). Bed-o'Cobs ⅛″ (Fisher Scientific) were used as bedding material in each cage.
The methods were identical to Experiment 5 as described above; including the preparation of test articles (solutions of RWJ-800088 and AdHGF), isolation and transplant of LSECs, and Hepatic irradiation.
The livers of mice were irradiated at 50 Gy by using an X-ray irradiator (SARRP). At 24 hours post-irradiation, the LSECs (1×10^6 cells/mouse) were injected to the mouse through tail vein. […]
A tail bleeding test was performed in which the extent of bleeding and time to clotting over the course of 30 minutes was evaluated. FVIII protein levels were evaluated by Western blot and mRNA profiling in the blood and liver to evaluate the extent to which there was engraftment of functioning LSECs that produce FVIII. […]

“methoxypolyethyleneglycol20000-propionyl-L-Isoleucyl-L-Glutamyl-Glycyl-L-Prolyl-L-Threonyl-L-Leucyl-L-Arginyl-L-Glutaminyl-L-2-Naphthylalanyl-L-Leucyl-L-Alanyl-L-Alanyl-L-Arginyl-Sarcosyl-Ne-(methoxypolyethyleneglycol20000-propionyl-L-Isoleucyl-L-Glutamyl-Glycyl-L-Prolyl-L-Threonyl-L-Leucyl-L-Arginyl-L-Glutaminyl-L-2-Naphthyl alanyl-L-Leucyl-L-Alanyl-L-Alanyl-L-Arginyl-Sarcosyl-)-Lysinamide [RWJ-800088]” was tested, and the “Average Ratio of Right Lobe to Left Lobe Weight” value (cirrhotic mice; HIR + LSEC transplant (48 hours after HIR) + drug, 4 months post-HIR) was 1.35, the “hypertrophy of the non-irradiated lobe” value (cirrhotic mice; cirrhotic mice, 50 Gy HIR, RWJ-800088 with LSEC transplants) was “increase in hypertrophy” and the “levels of Factor VIII mRNA and activated protein in plasma and liver” value (factor VIII (FVIII); HIR+LSECs+RWJ-800088 treated hemophilia mice) was “increased levels”. The “expression of factor VIII (FVIII) by ELISA in plasma and liver compared to non-treated Haemophilia A mice” value (factor VIII (FVIII); HIR+LSECs+drug) was “prolonged expression”.
